In ChEMBL document CHEMBL4665749, “Usnic Acid Conjugates with Monoterpenoids as Potent Tyrosyl-DNA Phosphodiesterase 1 Inhibitors” (J Nat Prod, 2020):

What was measured:
[1] = test system: HeLa; assay: Cytotoxicity against human HeLa cells assessed as reduction in cell viability after 3 days by fluorometric assay; format: functional; details: 72 h
[2] = molecular target: Tyrosyl-DNA phosphodiesterase 1 (Homo sapiens, UniProt Q9NUW8); assay: Inhibition of recombinant TDP1 (unknown origin) expressed in Escherichia coli using 5'-FAM/3'-BHQ1 tagged oligonucleotide as substrate by fluorescence assay
[3] = test system: HeLa; assay: Potency index, ratio of CC50 of topotecan to CC50 of compound for human HeLa cells assessed as reduction in cell viability after 3 days in presence of topotecan by fluorometric assay; format: functional
[4] = test system: HeLa; assay: Cytotoxicity against human HeLa cells assessed as reduction in cell viability after 3 days in presence of topotecan by fluorometric assay; format: functional; details: 72 h

Chain of Tyrosyl-DNA phosphodiesterase 1 (Q9NUW8 whole entry): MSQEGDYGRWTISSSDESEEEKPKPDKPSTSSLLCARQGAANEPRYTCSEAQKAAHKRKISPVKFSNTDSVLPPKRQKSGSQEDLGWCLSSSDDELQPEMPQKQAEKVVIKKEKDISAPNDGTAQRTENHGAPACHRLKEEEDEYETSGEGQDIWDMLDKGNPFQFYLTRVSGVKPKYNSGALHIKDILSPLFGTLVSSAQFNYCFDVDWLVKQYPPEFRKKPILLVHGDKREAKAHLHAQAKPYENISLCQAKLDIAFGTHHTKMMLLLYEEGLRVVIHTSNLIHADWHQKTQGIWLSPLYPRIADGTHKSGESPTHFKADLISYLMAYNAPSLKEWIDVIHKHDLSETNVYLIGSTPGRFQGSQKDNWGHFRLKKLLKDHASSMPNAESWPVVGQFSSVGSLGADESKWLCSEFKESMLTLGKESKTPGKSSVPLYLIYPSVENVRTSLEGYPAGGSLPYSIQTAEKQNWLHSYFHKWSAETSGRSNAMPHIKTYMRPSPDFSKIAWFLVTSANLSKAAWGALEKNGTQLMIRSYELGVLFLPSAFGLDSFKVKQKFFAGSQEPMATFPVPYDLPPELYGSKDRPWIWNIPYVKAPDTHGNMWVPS

| IC50 [2] [nM] | Compound | CC50 [1] [nM] | Ratio [3] | CC50 [4] [nM] |
| --- | --- | --- | --- | --- |
| 88 | CCCCCCCC=NNc1nc(-c2c(O)c(C)c(O)c3c2OC2=CC(O)=C(C(C)=O)C(=O)[C@@]23C)cs1 | 20000 |  |  |
| 31 | CC(=O)C1=C(O)C=C2Oc3c(-c4csc(N/N=C5/C[C@H]6CC[C@]5(C)C6(C)C)n4)c(O)c(C)c(O)c3[C@@]2(C)C1=O | 20000 | 1.7 | 2700 |
| 16.4 | CC(=O)C1=C(O)C=C2Oc3c(-c4csc(NN=CCC(C)CCC=C(C)C)n4)c(O)c(C)c(O)c3[C@@]2(C)C1=O (stereo not given in full) | 20000 | 7.1 | 630 |
| 45 | CC(=O)C1=C(O)C=C2Oc3c(-c4csc(N/N=C\C5=C[C@@H]6C[C@H](C5)C6(C)C)n4)c(O)c(C)c(O)c3[C@@]2(C)C1=O | > 100000 | 1.7 | 2700 |
| 139 | CC(=O)C1=C(O)C=C2Oc3c(-c4csc(NN=CCC(C)CCCC(C)(C)O)n4)c(O)c(C)c(O)c3[C@@]2(C)C1=O (stereo not given in full) | 20000 |  |  |
| 27 | C=C(C)[C@H]1CC=C(/C=N\Nc2nc(-c3c(O)c(C)c(O)c4c3OC3=CC(O)=C(C(C)=O)C(=O)[C@@]34C)cs2)CC1 | 20000 | 3.8 | 1200 |
| 46 | CC(=O)C1=C(O)C=C2Oc3c(-c4csc(NN=C5C=C(C)[C@H]6C[C@@H]5C6(C)C)n4)c(O)c(C)c(O)c3[C@@]2(C)C1=O (mixture of isomers) | 20000 | 1.3 | 3500 |
|  | CC[C@@]1(O)C(=O)OCc2c1cc1n(c2=O)Cc2cc3c(CN(C)C)c(O)ccc3nc2-1 [TOPOTECAN] | 4500 |  |  |
